From patent US9937178B2, “Methods of identifying and using MDM2 inhibitors” (DUKE UNIVERSITY, priority 2011, dated 2018) come the findings set out here.

Test [1] has as its system Mcl-1. The test is described as follows: Immunoblot of Mcl-1 protein levels. It is filed as cell-based. Conditions: 1 μM lapatinib. The procedure:
FIG. 3 is a set of photographs showing that Mcl-1 is stabilized in lapatinib-resistant cells. […] FIG. 3B is a set of immunoblots showing the levels of HER2 and phospho-HER2 in untreated cells and cells treated with lapatinib. Cells were treated with or without lapatinib (1 μM) for 24 hours in the presence of the caspase inhibitor z-VAD (50 μM). The cells were harvested and cell lysates were immunoblotted using antibodies against phospho-HER2 (Y877) and total HER2. FIG. 3C is an immunoblot for phospho-AKT (T308) and total AKT. BT474 and rBT474 cells were treated with 1 μM lapatinib in the presence of 50 μM z-VAD. At the indicated time points, the cells were harvested and immunoblotted. FIG. 3D is an immunoblot for phospho-Erl1/2(T202/Y204) and total Erk1/2. BT474 and rBT474 cells were treated with 1 μM lapatinib in the presence of 50 μM z-VAD. At the indicated time points, the cells were harvested and immunoblotted. FIG. 3E is an immunoblot for Mcl-1, Bim, and Actin. BT474 and rBT474 cells (left) or SKBR3 and rSKBR3 cells (right) were treated with 1 μM lapatinib. The cells were harvested at the indicated time points and immunoblotted. FIG. 3F is an autoradiograph showing the ^35[S] radioactivity in lysates containing ^35[S]-Mcl-1 at the indicated time points. ^35[S]-labeled Mcl-1 protein was incubated in cell-free lysates prepared from BT474 and rBT474 cells (top) or SKBR3 and rSKBR3 cells (bottom). FIG. 3G is an autograph showing the ^35[S]-labeled Mcl-1 to monitor Mcl-1 stability over time. The ^35[S]-labeled Mcl-1 was incubated in lysates prepared from rBT474 cells treated with or without 1 μM lapatinib. FIG. 3H is an immunoblot for HA. SKBR3 or rSKBR3 cells were co-transfected with FLAG-Mcl-1 and HA-Ubiquitin (Ub). […] Cells were harvested after treatment with 10 μM MG 132 for 4 hours. FLAG-Mcl-1 was retrieved by immunoprecipitation using anti-flag agarose, and Mcl-1 ubiquitylation was analyzed by immunoblotting for HA (*non-specific band, **IgG heavy chain).
(Immunoblotting shows a protein as a band on a membrane.)

In test [2] the test system is rBT474, rSKBR3, rAU565 and rSUM190 cells. The test is described as follows: Apoptotic cell death (Annexin V FACS) in lapatinib-resistant lines. The format is cell-based. Conditions: all four resistant lines. The procedure: FIG. 2 is a set of graphs showing the percentage of cells undergoing apoptotic cell death for each of the four cell lines and their matched resistant cell line in the presence or absence of lapatinib and/or an MDM2 inhibitor, MI-219, as measured by FACS analysis for Annexin V. Results are expressed as mean +/− SEM of Annexin V positive cells.
BT474, SKBR3, and AU565 cells were obtained from ATCC. SUM190 cells were obtained from Asterand, Inc. All cell lines were cultured in RPMI medium containing 10% fetal bovine serum (FBS). Lapatinib-resistant cells (rBT474, rSKBR3, rAU565, and rSUM190) were established as previously described^14. Cobleigh, et al. J. Clin. Oncol. 17, 2639-2648 (1999). Lapatinib-resistant cells were grown in the presence of 1 μM lapatinib unless otherwise stated.

In a further test the test system is PP5. The experiment in a line: Immunoblot of PP5 protein levels. It is filed as cell-based. The settings on record: 1 μM lapatinib. The procedure: FIG. 7 is a set of photographs and graphs showing PP5 stability and post-cytochrome c protection in lapatinib-resistant cells. FIG. 7A is an immunoblot for caspase-9 (cleaved and non-cleaved) and cleaved caspase-3 (C9 and C3, respectively) showing rBT474 cells cultured in the absence or presence of 1 μM lapatinib for one week, as compared to BT474 cells which were maintained without lapatinib. Cytosolic lysates prepared from BT474 or rBT474 were incubated with 1 mM dATP and various amounts of cytochrome c (CC). FIG. 7B is a set of graphs showing Caspase 3 activity in the indicated cell lysates over time. Caspase-3 activity was assayed by measuring cleavage of DEVD-pNA following incubation of the cell lysates with 1 mM dATP and various concentrations of cytochrome c. FIG. 7C is an autoradiograph of ^32P and an immunoblot showing the percentage of the protein phosphorylated. In the presence of [γ-^32P]ATP, recombinant His-tagged HSP90β proteins (wild type and the indicated mutants) on nickel beads were incubated with the HSP90β-targeted kinase casein kinase 2. FIG. 7D is an autoradiograph and corresponding immunoblot showing BT474 or rBT474 cells after being cultured in the absence or presence of 1 μM lapatinib for 24 hours in the presence of z-VAD. Recombinant His-tagged HSP90β protein on nickel beads was incubated with the cell lysates in the presence of [γ-^32P]ATP. FIG. 7E is an immunoblot for phospho-Hsp90β (Ser226) and total HSP90β at various time points. […] FIG. 7F is a set of graphs showing FACS analysis for the phosphorylation status of Hsp90β (Ser255). BT474 or rBT474 cells cultured in the presence of 1 μM lapatinib for 24 hours were fixed with formaldehyde and incubated with phospho-Hsp90β (Ser255) antibody followed by an Alexa488-conjugated secondary antibody. FIG. 7G is an immunoblot for PP5 and actin at the indicated time points. BT474 and rBT474 (left) or AU565 and rAU565 cells (right) were treated with 1 μM lapatinib. FIG. 7H is an autoradiograph of immunoprecipitated FLAG-PP5 using an anti-FLAG agarose. […]

A further test concerns BT474 xenografts. The test is described as follows: BT474 mammary fat pad xenograft. The settings on record: 100 mg/kg each drug, twice daily by oral gavage.
The next test concerns rAU565-derived tumor. The test is described as follows: rAU565 mammary fat pad xenograft. The settings on record: 100 mg/kg each drug, twice daily by oral gavage.
For test [3], the system named is Mcl-1. The test is described as follows: 35[S]-Mcl-1 degradation in cell-free lysates. It is filed as cell-based. Conditions: resistant cell lysates, only from cells treated with lapatinib (rBT474). The procedure:
FIG. 3 is a set of photographs showing that Mcl-1 is stabilized in lapatinib-resistant cells. […] FIG. 3B is a set of immunoblots showing the levels of HER2 and phospho-HER2 in untreated cells and cells treated with lapatinib. Cells were treated with or without lapatinib (1 μM) for 24 hours in the presence of the caspase inhibitor z-VAD (50 μM). The cells were harvested and cell lysates were immunoblotted using antibodies against phospho-HER2 (Y877) and total HER2. FIG. 3C is an immunoblot for phospho-AKT (T308) and total AKT. BT474 and rBT474 cells were treated with 1 μM lapatinib in the presence of 50 μM z-VAD. At the indicated time points, the cells were harvested and immunoblotted. FIG. 3D is an immunoblot for phospho-Erl1/2(T202/Y204) and total Erk1/2. BT474 and rBT474 cells were treated with 1 μM lapatinib in the presence of 50 μM z-VAD. At the indicated time points, the cells were harvested and immunoblotted. […] FIG. 3F is an autoradiograph showing the ^35[S] radioactivity in lysates containing ^35[S]-Mcl-1 at the indicated time points. ^35[S]-labeled Mcl-1 protein was incubated in cell-free lysates prepared from BT474 and rBT474 cells (top) or SKBR3 and rSKBR3 cells (bottom). […] FLAG-Mcl-1 was retrieved by immunoprecipitation using anti-flag agarose, and Mcl-1 ubiquitylation was analyzed by immunoblotting for HA (*non-specific band, **IgG heavy chain). […]

The subject of a further test is rBT474 xenografts. The test is described as follows: rBT474 mammary fat pad xenograft. The settings on record: 100 mg/kg each drug, twice daily by oral gavage.
In test [4] the test system is mitochondrial cytochrome c release. The test is described as follows: Western blot for cytochrome c in cytosolic lysates lacking mitochondria. The settings on record: 1 μM lapatinib, 24 hours.

Protocol for rAU565-derived tumor: Six week-old female nude mice were purchased from NCI Frederic. Xenograft tumors were produced by injection into the mammary fat pad with cells (10×10^6). Tumor volumes were calculated every 3-4 days based on caliper measurements of the short (a) and long (b) tumor diameters (volume=a2b/2). […] Mice were dosed orally with vehicle alone, lapatinib (100 mg/kg), Nutlin-3 (100 mg/kg), or combination of both twice daily by gavage.
Protocol for rBT474 xenografts: Forty-eight hours after siRNA transfection, cells were treated with 1 μM lapatinib for 48 hours, and cells were harvested and subjected to Annexin V staining. The percentage of Annexin V-positive cells was analyzed by FACS. Results are expressed as a mean percentage±SEM and analyzed by t-test (*P<0.05). […] The oral administration of lapatinib (100 mg/kg, twice daily by oral gavage) began when the average tumor volume surpassed 300 mm^3. Results are expressed as a mean percentage±SEM. […] After 36 hours, cells were harvested and immunoblotted. […] BT474 and rBT474 cells were injected into the mammary fad pad of each mouse. When tumors developed to a size of 200 mm^3, the mice were randomly assigned to receive vehicle, lapatinib (100 mg/kg), Nutlin-3 (100 mg/kg), or Lapatinib+Nutlin-3 and treated twice daily by oral gavage. Results are expressed as a mean percentage±SEM. […] Percentage of apoptotic cell death was measured by FACS analysis using Annexin V. Results are expressed as a mean percentage±SEM of Annexin V-positive cells (*P<0.05 by t-test).
Six week-old female nude mice were purchased from NCI Frederic. Xenograft tumors were produced by injection into the mammary fat pad with cells (10×10^6). Tumor volumes were calculated every 3-4 days based on caliper measurements of the short (a) and long (b) tumor diameters (volume=a2b/2). […]

Take `CS(=O)(=O)CCNCc1ccc(-c2ccc3ncnc(Nc4ccc(OCc5cccc(F)c5)c(Cl)c4)c3c2)o1` [lapatinib]: the Mcl-1 protein levels entry in the test on Mcl-1 [1] (resistant cells) was “increased”; in the test on Mcl-1 [1] (sensitive cells), “decreased”. Moreover, the “cell death in response to lapatinib treatment” value in test [2] was “did not die”. Besides, the PP5 levels result in the test on PP5 (resistant cells) is “unaltered”; in the test with PP5 (sensitive cells), “gradual decrease”. Also, the “growth of BT474-derived tumors” value with BT474 xenografts is given as “significantly suppressed”. The rAU565-derived tumor growth result with rAU565-derived tumor is “not rAU565-derived tumor growth”. In addition, the Mcl-1 protein half-life entry in the test on Mcl-1 [3] is “prolonged”. In the test with rBT474 xenografts, the rBT474-derived tumor growth entry is “Neither lapatinib nor Nutlin-3 inhibited”. The “mitochondrial cytochrome c release” value is “induced mitochondrial cytochrome c release in parental BT474 cells” in test [4] (parental BT474 cells) and “not rBT474 cells” in test [4] (rBT474 cells).
